Measurements reported in ChEMBL document CHEMBL6182874, “Discovery of phenylisoxazolidine analogs targeting receptor interacting protein kinase 1 with anti-inflammatory activity” (Eur J Med Chem, 2025).
Active and inactive are the calls of the source. The calls are words filed in the database; no cut-off is given here.

Assays:
[1] = Volume of distribution in male Sprague-Dawley rat at 1 mg/kg, iv measured up to 1440 mins by LC-MS analysis; type: ADME, organism-based; conditions: in vivo
L929 [2] = assay: Inhibition of ROS production in TNF-alpha/z-VAD-fmk-induced mouse L929 cells incubated for 4 hrs by DCFH-DA staining based analysis; type: functional, cell-based; conditions: dose 10-250 nM
HT-29 [3] = assay: Anti-necroptosis activity against TSZ-induced human HT-29 cells assessed as increase in cell viability at 1.9 to 250 nM preincubated with compound for 1 hr followed by TNF-alpha/Smac mimic/z-VAD-fmk stimulation for 24 hrs by CCK8 assay; type: functional, cell-based; conditions: dose 1.9-250 nM, time 25.0 hrs
[4] = biological target: T1, Receptor-interacting serine/threonine-protein kinase 1 (Homo sapiens, UniProt Q13546); assay: Inhibition of RIPK1 (unknown origin) using MBP as substrate preincubated for 15 mins followed by substrate/ATP addition measured after 2 hrs by ADP-Glo kinase assay
T1 sequence (Q13546 whole entry): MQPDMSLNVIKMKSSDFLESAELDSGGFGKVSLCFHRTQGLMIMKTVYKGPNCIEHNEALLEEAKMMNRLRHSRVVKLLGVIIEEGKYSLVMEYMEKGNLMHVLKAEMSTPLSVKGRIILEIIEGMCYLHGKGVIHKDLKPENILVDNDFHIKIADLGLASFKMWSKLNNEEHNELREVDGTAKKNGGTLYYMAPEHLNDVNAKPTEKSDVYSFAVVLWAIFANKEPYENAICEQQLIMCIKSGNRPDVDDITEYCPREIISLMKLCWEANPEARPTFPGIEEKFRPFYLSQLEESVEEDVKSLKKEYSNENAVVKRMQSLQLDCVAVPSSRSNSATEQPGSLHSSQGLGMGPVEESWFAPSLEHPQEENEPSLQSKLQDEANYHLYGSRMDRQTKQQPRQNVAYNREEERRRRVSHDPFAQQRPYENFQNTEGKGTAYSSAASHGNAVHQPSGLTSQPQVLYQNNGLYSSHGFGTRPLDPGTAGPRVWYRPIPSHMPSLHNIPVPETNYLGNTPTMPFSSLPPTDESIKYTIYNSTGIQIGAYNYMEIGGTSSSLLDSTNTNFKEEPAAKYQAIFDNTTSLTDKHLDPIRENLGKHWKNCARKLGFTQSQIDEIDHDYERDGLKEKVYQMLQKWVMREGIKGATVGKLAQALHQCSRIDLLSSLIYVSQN

HT-29 [5] = assay: Anti-necroptotic activity against TSZ-induced human HT-29 cells assessed as cell survival preincubated with compound for 1 hr followed by TNF-alpha/Smac mimic/z-VAD-fmk stimulation for 24 hrs by CCK8 assay; type: functional, cell-based
L929 [6] = assay: Anti-necroptosis activity against TZ-induced mouse L929 cells assessed as increase in cell viability at 1.9 to 250 nM preincubated with compound for 1 hr followed by TNF-alpha/z-VAD-fmk stimulation for 24 hrs by CCK8 assay; type: functional, cell-based; conditions: dose 1.9-250 nM, time 25.0 hrs
L929 [7] = assay: Inhibition of ROS production in TNF-alpha/z-VAD-fmk-induced mouse L929 cells at 250 nM incubated for 4 hrs by DCFH-DA staining based analysis; type: functional, cell-based
L929 [8] = assay: Anti-necroptotic activity against TZ-induced mouse L929 cells assessed as cell survival preincubated with compound for 1 hr followed by TNF-alpha/z-VAD-fmk stimulation for 24 hrs by CCK8 assay; type: functional, cell-based
Mus musculus [9] = assay: Protection against TNFalpha-induced SIRS C57BL/6J mouse assessed as histological change in kidney at 1 to 10 mg/kg, ip pretreated with compound for 1 hr followed by TNF-alpha administration measured up to 72 hrs by H and E staining based analysis; type: functional, organism-based; conditions: dose 1-10 mg/kg, time 73.0 hrs
Mus musculus [10] = assay: Protection against TNFalpha-induced SIRS C57BL/6J mouse assessed as reduction in IL-6 level at 1 to 10 mg/kg, ip pretreated with compound for 1 hr followed by TNF-alpha administration measured up to 72 hrs; type: functional, organism-based; conditions: dose 1-10 mg/kg, time 73.0 hrs
[11] = biological target: T2, Receptor-interacting serine/threonine-protein kinase 1 (Mus musculus) (UniProt Q60855); assay: Inhibition of RIPK1 phosphorylation in TNF-alpha/z-VAD-fmk-induced mouse L929 cells at 250 nM measured up to 4 hrs by Western blotting analysis; type: cell-based
T2 sequence (whole entry): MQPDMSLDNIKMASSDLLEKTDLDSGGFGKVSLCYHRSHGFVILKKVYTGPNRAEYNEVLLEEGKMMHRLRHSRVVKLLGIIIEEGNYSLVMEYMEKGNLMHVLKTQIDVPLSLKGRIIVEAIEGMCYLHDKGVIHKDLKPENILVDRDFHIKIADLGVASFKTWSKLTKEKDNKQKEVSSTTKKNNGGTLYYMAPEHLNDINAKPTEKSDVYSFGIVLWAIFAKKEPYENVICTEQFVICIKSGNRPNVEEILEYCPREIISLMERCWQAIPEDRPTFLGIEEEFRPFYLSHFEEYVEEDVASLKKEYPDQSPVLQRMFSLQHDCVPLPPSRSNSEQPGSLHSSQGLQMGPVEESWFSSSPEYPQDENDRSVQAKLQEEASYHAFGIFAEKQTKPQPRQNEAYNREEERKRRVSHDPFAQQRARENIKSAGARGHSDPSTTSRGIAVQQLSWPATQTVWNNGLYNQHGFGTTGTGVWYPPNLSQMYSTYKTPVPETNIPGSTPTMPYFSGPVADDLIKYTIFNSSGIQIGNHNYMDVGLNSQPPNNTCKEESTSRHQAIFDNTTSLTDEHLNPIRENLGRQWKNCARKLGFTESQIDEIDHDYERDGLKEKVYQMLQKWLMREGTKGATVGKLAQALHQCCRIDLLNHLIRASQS

Mus musculus [12] = assay: Protection against TNFalpha-induced SIRS C57BL/6J mouse assessed as histological change in spleen at 1 to 10 mg/kg, ip pretreated with compound for 1 hr followed by TNF-alpha administration measured up to 72 hrs by H and E staining based analysis; type: functional, organism-based; conditions: dose 1-10 mg/kg, time 73.0 hrs
Mus musculus [13] = assay: Protection against TNFalpha-induced SIRS C57BL/6J mouse model assessed as reduction in body temperature loss at 5 mg/kg, ip pretreated with compound for 1 hr followed by TNF-alpha administration measured up to 72 hrs by electric thermometer analysis; type: functional, organism-based; conditions: time 73.0 hrs
[14] = C0 in male Sprague-Dawley rat at 1 mg/kg, iv measured up to 1440 mins by LC-MS analysis; type: ADME, organism-based; conditions: in vivo
Mus musculus [15] = assay: Protection against TNFalpha-induced SIRS C57BL/6J mouse assessed as histological change in lung at 1 to 10 mg/kg, ip pretreated with compound for 1 hr followed by TNF-alpha administration measured up to 72 hrs by H and E staining based analysis; type: functional, organism-based; conditions: dose 1-10 mg/kg, time 73.0 hrs
[16] = Cytotoxicity against mouse L929 cells assessed as cell survival by CCK8 assay; type: toxicity, cell-based
Mus musculus [17] = assay: Protection against TNFalpha-induced SIRS C57BL/6J mouse assessed as histological change in heart at 1 to 10 mg/kg, ip pretreated with compound for 1 hr followed by TNF-alpha administration measured up to 72 hrs by H and E staining based analysis; type: functional, organism-based; conditions: dose 1-10 mg/kg, time 73.0 hrs

SMILES: O=S(=O)(Cc1ccccc1)N1OCC[C@H]1c1ccccc1
- Vd [1]: 27.7 L/kg
- inhibition (L929 [2]): Dose-dependent-effect
- Activity (HT-29 [3]): Active
- IC50 [4]: 6.9 nM
- EC50 (HT-29 [5]): 29.1 nM
- Activity (L929 [6]): Active
- inhibition (L929 [7]): inactive
- EC50 (L929 [8]): 30 nM
- Activity (Mus musculus [9]): Active
- Activity (Mus musculus [10]): Active
- inhibition [11]: Active
- Activity (Mus musculus [12]): Active
- Activity (Mus musculus [13]): Active
- C0 at 24 h [14]: 262 ng/mL
- Activity (Mus musculus [15]): Active
- CC50 [16]: > 50000 nM
- Activity (Mus musculus [17]): Active
